Test results: PubChem BioAssay AID2060907 (Molecular Pharmacology Branch, DTP, NCI, 2025)

Tested on: 388556-164-R-J1-PDC complex spheroid viability
Assay: Anticancer human tumor 388556-164-R-J1-PDC patient-derived colon adenocarcinoma cell line growth inhibition [RAS]
Conditions: for IC50: curve of first compound; for viability, T/C: stronger effect = lower value
Summary of the method: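 Tumour cells grown as complex spheroids with HUVEC endothelial cells and mesenchymal stem cells, treated with RAS pathway inhibitor combinations. Each agent spans half-log steps from near clinical Cmax, or 10 microM where Cmax is unknown.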

[1] = second compound 0.00316 µM, first compound 0.0316 µM
[2] = second compound 0.00316 µM, first compound 0.1 µM
[3] = second compound 0.00316 µM, first compound 0.316 µM
[4] = second compound 0.00316 µM, first compound 1 µM
[5] = second compound 0.01 µM, first compound 0.0316 µM
[6] = second compound 0.01 µM, first compound 0.1 µM
[7] = second compound 0.01 µM, first compound 0.316 µM
[8] = second compound 0.01 µM, first compound 1 µM
[9] = second compound 0.0316 µM, first compound 0.0316 µM
[10] = second compound 0.0316 µM, first compound 0.1 µM
[11] = second compound 0.0316 µM, first compound 0.316 µM
[12] = second compound 0.0316 µM, first compound 1 µM
[13] = second compound 0.1 µM, first compound 0.0316 µM
[14] = second compound 0.1 µM, first compound 0.1 µM
[15] = second compound 0.1 µM, first compound 0.316 µM
[16] = second compound 0.1 µM, first compound 1 µM
[17] = second compound 0.316 µM, first compound 0.0316 µM
[18] = second compound 0.316 µM, first compound 0.1 µM
[19] = second compound 0.316 µM, first compound 0.316 µM
[20] = second compound 0.316 µM, first compound 1 µM
[21] = second compound 1 µM, first compound 0.0316 µM
[22] = second compound 1 µM, first compound 0.1 µM
[23] = second compound 1 µM, first compound 0.316 µM
[24] = second compound 1 µM, first compound 1 µM
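Also: spheroids exposed to compound for 7 days before readout.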
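For viability, T/C in this document: 100% = DMSO vehicle control luminescence.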

C=CC(=O)Nc1cc(Nc2nccc(-c3cn(C)c4ccccc34)n2)c(OC)cc1N(C)CCN(C)C + C=CC(=O)N1CCN(c2nc(OCC3CCCN3C)nc3c(F)c(-c4nc(N)cc(C)c4C(F)(F)F)c(Cl)cc23)C(C)C1
IC50 (second compound 0.00316 µM): > 1 µM
IC50 (second compound 0.01 µM): > 1 µM
IC50 (second compound 0.0316 µM): > 1 µM
IC50 (second compound 0.1 µM): > 1 µM
IC50 (second compound 0.316 µM): > 1 µM
IC50 (second compound 1 µM): > 1 µM
viability, T/C (second compound 0.00316 µM, first compound 0.00316 µM): 110%
viability, T/C (second compound 0.00316 µM, first compound 0.01 µM): 99.2%
viability, T/C [1]: 92.6%
viability, T/C [2]: 80.3%
viability, T/C [3]: 68.6%
viability, T/C [4]: 52.8%
viability, T/C (second compound 0.01 µM, first compound 0.00316 µM): 104%
viability, T/C (second compound 0.01 µM, first compound 0.01 µM): 103%
viability, T/C [5]: 101%
viability, T/C [6]: 90.1%
viability, T/C [7]: 68.4%
viability, T/C [8]: 58%
viability, T/C (second compound 0.0316 µM, first compound 0.00316 µM): 102%
viability, T/C (second compound 0.0316 µM, first compound 0.01 µM): 99%
viability, T/C [9]: 94%
viability, T/C [10]: 87.3%
viability, T/C [11]: 70.3%
viability, T/C [12]: 61.2%
viability, T/C (second compound 0.1 µM, first compound 0.00316 µM): 100%
viability, T/C (second compound 0.1 µM, first compound 0.01 µM): 99.4%
viability, T/C [13]: 91.1%
viability, T/C [14]: 90.6%
viability, T/C [15]: 72.9%
viability, T/C [16]: 54.6%
viability, T/C (second compound 0.316 µM, first compound 0.00316 µM): 99.2%
viability, T/C (second compound 0.316 µM, first compound 0.01 µM): 110%
viability, T/C [17]: 103%
viability, T/C [18]: 94.5%
viability, T/C [19]: 76.1%
viability, T/C [20]: 58.8%
viability, T/C (second compound 1 µM, first compound 0.00316 µM): 90.6%
viability, T/C (second compound 1 µM, first compound 0.01 µM): 100%
viability, T/C [21]: 93.5%
viability, T/C [22]: 96.4%
viability, T/C [23]: 73.3%
viability, T/C [24]: 54.9%

CC(C)NCC(C(=O)N1CCN(c2ncnc3c2C(C)CC3O)CC1)c1ccc(Cl)cc1 (centres undefined) + C=CC(=O)N1CCN(c2nc(OCC3CCCN3C)nc3c(F)c(-c4nc(N)cc(C)c4C(F)(F)F)c(Cl)cc23)C(C)C1
IC50 (second compound 0.00316 µM): > 10 µM
IC50 (second compound 0.01 µM): > 10 µM
IC50 (second compound 0.0316 µM): > 10 µM
IC50 (second compound 0.1 µM): > 10 µM
IC50 (second compound 0.316 µM): > 10 µM
IC50 (second compound 1 µM): > 10 µM
viability, T/C [1]: 117%
viability, T/C [2]: 116%
viability, T/C [3]: 107%
viability, T/C [4]: 95.5%
viability, T/C (second compound 0.00316 µM, first compound 3.16 µM): 102%
viability, T/C (second compound 0.00316 µM, first compound 10 µM): 102%
viability, T/C [5]: 106%
viability, T/C [6]: 110%
viability, T/C [7]: 103%
viability, T/C [8]: 108%
viability, T/C (second compound 0.01 µM, first compound 3.16 µM): 90.9%
viability, T/C (second compound 0.01 µM, first compound 10 µM): 105%
viability, T/C [9]: 97.2%
viability, T/C [10]: 113%
viability, T/C [11]: 110%
viability, T/C [12]: 103%
viability, T/C (second compound 0.0316 µM, first compound 3.16 µM): 105%
viability, T/C (second compound 0.0316 µM, first compound 10 µM): 94.2%
viability, T/C [13]: 108%
viability, T/C [14]: 103%
viability, T/C [15]: 99.5%
viability, T/C [16]: 106%
viability, T/C (second compound 0.1 µM, first compound 3.16 µM): 95.9%
viability, T/C (second compound 0.1 µM, first compound 10 µM): 91%
viability, T/C [17]: 106%
viability, T/C [18]: 112%
viability, T/C [19]: 105%
viability, T/C [20]: 99.3%
viability, T/C (second compound 0.316 µM, first compound 3.16 µM): 111%
viability, T/C (second compound 0.316 µM, first compound 10 µM): 99.1%
viability, T/C [21]: 106%
viability, T/C [22]: 104%
viability, T/C [23]: 118%
viability, T/C [24]: 99.8%
viability, T/C (second compound 1 µM, first compound 3.16 µM): 100%
viability, T/C (second compound 1 µM, first compound 10 µM): 99.4%
